Results published in US10539552B2, “Compositions and methods for measuring cellular mechanical stress” (The Regents of the University of California, priority 2014, dated 2020).
Entries after “also recorded” stand apart in the source; their conditions may differ. Blank lines part the entries; values can stand above or below the compound they belong to.

How the values were obtained:
[1] = test system: CaMKII; test: In vitro CaMKII activity measurement with Camui FRET sensor in HEK cell lysates; type: biochemical; conditions: Camui lacking phosphorylation (T286) or oxidation (CM280/281) sites
Procedure: (§1) In Vitro CaMKII activity measurements with Camui sensor. Design and synthesis of the wild-type, phosphorylation resistant, and oxidation resistant Camui constructs were previously described. HEK293 cells were cultured in Eagle's medium plus 5% fetal bovine serum and penicillin/streptomycin for 24 hour and then transfected with plasmids encoding Camui (or a mutant isoform) using a mammalian transfection kit (Stratagene). After an additional 24 hour, Camui expression was checked by fluorescence microscopy. HEK cells expressing Camui were lysed in Ca^2+-free buffer containing 50 mM Tris-HCl buffer (pH 7.5), 5 mM MgCl2, and protease inhibitors. Fluorescence measurements were performed using a MS SpectraMax plate reading spectrophotometer (Molecular Devices) with excitation and emission slits set to 4 nm, excitation wavelength set to 440 nm, emission wavelengths set to 477 nm (FCFP) and 527 nm (FYFP), respectively. The cytosolic fraction of the transfected HEK cells […] Camui fluorescence was measured in the presence of 10 μM CaM and 200 μM Ca^2+. EGTA 1 mM was used to chelate Ca^2+ and autonomous CaMKII activity was measured in the presence of 1 mM EGTA and either 50 μM or 500 μM SNAP.
(§2) CaMKII activity was known to be increased by auto-phosphorylation and by oxidation. Here we measure the effect of nitric oxide (NO) on CaMKII activity using the FRET-based biosensor Camui which detects conformational changes in CaMKII during activation. To determine whether NO can activate CaMKII, we expressed the CaMKII activity sensor Camui in HEK cells and measured autonomous activation induced by the NO donor SNAP. Camui comprises of full length CaMKII with a CFP/YFP pair on either end of the kinase, which produce substantial FRET in the closed (autoinhibited) state. If autoinhibition is disrupted, either directly by Ca^2+/CaM binding or autonomously by post-translational modification of the kinase, FRET is reduced, resulting in an increase in FCFP/FYFP. […] CaMKII is known to be autonomously activated by T286 phosphorylation and by CM280/281 oxidation. To test whether one or both of these mechanisms were responsible for SNAP-induced CaMKII activation, we repeated the HEK cell experiment using mutant versions of Camui lacking either the phosphorylation (T286) or oxidation (CM280/281) target sites. In both cases, SNAP dependent activation of CaMKII was preserved.

[2] = target: T1, CaMKII (Rattus norvegicus, UniProt P11275); test: as above; type: biochemical
T1 construct: Camui comprises of full length CaMKII with a CFP/YFP pair on either end of the kinase; expressed in transfected cells; host or cells: HEK293 (lysate, cytosolic fraction)
T1 sequence (P11275 whole entry): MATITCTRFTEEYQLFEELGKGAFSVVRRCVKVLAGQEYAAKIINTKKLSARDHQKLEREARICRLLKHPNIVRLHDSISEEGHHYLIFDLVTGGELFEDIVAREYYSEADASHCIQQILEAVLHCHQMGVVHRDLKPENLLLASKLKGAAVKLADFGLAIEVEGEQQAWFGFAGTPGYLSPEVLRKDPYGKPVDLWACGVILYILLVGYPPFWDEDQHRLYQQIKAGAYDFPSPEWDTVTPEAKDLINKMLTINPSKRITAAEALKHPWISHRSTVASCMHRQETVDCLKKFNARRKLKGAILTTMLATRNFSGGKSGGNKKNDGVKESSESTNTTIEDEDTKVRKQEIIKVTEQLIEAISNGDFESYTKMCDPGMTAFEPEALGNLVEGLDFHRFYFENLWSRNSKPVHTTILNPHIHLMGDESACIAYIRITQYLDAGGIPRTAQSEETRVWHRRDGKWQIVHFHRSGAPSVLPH
Procedure: as §1, §2

[3] = test system: mouse ventricular myocytes (wild-type); test: Cell-in-Gel confocal Ca^2+ spark imaging during myocyte contraction under afterload (wild-type); type: cell-based; conditions: wild-type myocytes contracting in Gel7.5%, paced 0.5 Hz, L-NAME 10 mM, L-NPA 5 μM, L-Nio 10 μM, Gp91ds 1 μM, blebbistatin 10 μM
Procedure: Cell isolation. Wild-type and transgenic mice, 8 weeks old male, were purchased from Jackson Laboratories (USA): C57BL/6J (wild-type), B6.129S4-Nos1tm1Plh/J (NOS1−/−), B6.129P2-Nos3tm1Unca/J (NOS3−/−). Transgenic mouse with R92Q mutation in cardiac troponin T was created in Tardiff s lab (22) and bred in Chen-Izu's lab. A standard enzymatic technique (40) was used to isolate the ventricular myocytes using Worthington collagenase type II and Sigma protease type XIV. All experiments were conducted at 21-22° C.
Cell-in-Gel system. Elastic gel matrix was made of a poly vinyl alcohol (PVA) hydrogel system comprised of underivatized PVA (98 KD) and a tetravalent boronate-PEG crosslinker (12). Freshly isolated myocytes were first suspended in 7% PVA solution; then 7.5% crosslinker solution was added in equal volume (Gel7.5%). Upon mixing, the boronate group crosslinks PVA hydrogel, embedding the cell in the 3D gel matrix. The boronate group also crosslinks the cis-diols of the cell-surface glycans to PVA, thereby tethering the cell surface to the gel. We used Gel7.5% for all the experiments in this study except one group in FIG. 11G using Gel5%.
Confocal imaging of Ca^2+ signals. Myocytes were loaded with Ca^2+ indicator, Fluo-4, and then embedded in the gel. Confocal imaging was performed using standard method (41).
For confocal imaging of the Ca^2+ signals, freshly isolated myocytes were continuously perfused in Tyrode solution containing (in mM): 150 NaCl, 5.4 KCl, 1.2MgCl2, 1 CaCl2, at pH 7.4, loaded with Ca^2+ indicator Fluo-4, and then embedded in the PVA gel. The cell was paced at 0.5 Hz frequency by electrical field stimulation using short (4 ms) depolarization pulses with bipolar switching (switch positive and negative polarity in consecutive stimulus pulses). The platinum electrodes were used in conjunction with continues perfusion of fresh Tyrode solution to maintain constant bath condition (pH, glucose, ionic composition, temperature etc.).
Confocal images were obtained using an Olympus FluoView 1000 Confocal Microscope (inverted configuration) with a water immersion fluorescence objective UPlanSApo 60X, NA1.2, corrected for the thickness of the No. 1 glass coverslip that is used at the bottom of the perfusion chamber. Fluo-4 was excited with 488 nm laser beam (laser power set to 5%), and the emitted fluorescence light was passed through a bandpass filter BA505-605 and collected with a PMT. The PMT voltage, gain, and offset were set to avoid any saturation and to obtain high fidelity images. The line-scan images were obtained using the highest scan speed of 2 μs/pixel.
Ca^2+ sparks were detected automatically using a homemade program based on our spark identification algorithm and adapted for x-t linescans. As in our 2-D program, sparks are identified in two stages. In the first stage, putative sparks are detected based on Cheng et al.'s description and bright but spatially small events were eliminated using the ‘live-or-die’ algorithm described in our previous publication. In the second stage, the putative sparks were classified as sparks or noise based on the statistical sieve as described previously in our publication. This analysis software provides automated and objective (agnostic via statistical sieving) detection and classification of the Ca^2+ signaling events. […]

[4] = test system: mouse ventricular myocytes; test: Systolic Ca^2+ transient and myocyte contraction in-Gel (Fluo-4 confocal / Fura-2 ratio, sarcomere detection); type: cell-based; conditions: for systolic Ca^2+ transient (Fluo-4 confocal): compared to load-free contraction, blebbistatin 10 μM in gel; for peak systolic Ca^2+ transient (Fura-2 ratio), inhibitor effect: L-NPA 5 μM
Text: Mechanical load effects on the myocyte contraction and systolic Ca^2+ transient. To establish that the diastolic spontaneous Ca^2+ sparks are indeed caused by the mechanical load, we examined the Ca^2+ spark rate in the myocytes contracting under different mechanical loads as shown in FIG. 11G. We also examined the systolic Ca^2+ transient and the myocyte contraction under these conditions of varying loads.
Whole cell Ca^2+ transient measurement using Fura-2 ratiometric method. In order to more precisely measure the whole cell Ca^2+ concentration, we used Fura-2 ratiometric method (40) rather than Fluo-4 single wavelength measurement. Fura-2 loading was done by incubating the cells with 2.5 μM Fura-2/AM and 0.75 μM Pluronic-127 (in 20% DMSO) at room temperature for 30 minutes. After washing out Fura-2/AM, the cells were incubated for an additional 45 minutes, and then used for experiment within 2 hours. An IonOptix system (IonOptix Inc., USA) with a Hyperswitch and mounted on the Olympus X71 inverted microscope with a water immersion fluorescence objective UPlanSPao 40×, 1.15 NA, corrected for the thickness of the No. 1 glass coverslip. The excitation light was generated using a high intensity ARC lamp (Cairn). The Hyperswitch (galvanometer based switching between […] and 380 nm at 500 Hz frequency, using a 340/370d/380 filter cube) was used to deliver dual excitation beams at 340 nm and 380 nm, switching between the two wavelengths. Fura-2 fluorescence emission light was passed through a bandpass filter D510/40m, and then collected in a photomultiplier tube (PMT). The gain of the PMT was set to avoid any saturation and to obtain high fidelity photon count.
The Fura-2 fluorescence emission (F) from the excitation at 340 nm and 380 nm were recorded from the cell. The background fluorescence (BG) at 340 nm and 380 nm wavelengths were obtained in the solution and in the gel without cell. The BG signals were found slightly higher in the gel than in solution, but both were substantially lower than the Fura-2 fluorescence emissions from the cell. The Fura-2 fluorescence ratio, RFura, was calculated after background subtraction.
For measuring the systolic Ca^2+ transient, the cell was first paced to reach steady-state (>2 minutes), and then the Fura-2 fluorescence was recorded for at least 10 beats during steady-state. For SR content measurement, after the cell reaching steady-state the field stimulation was stopped to keep the cell at resting state for 15 seconds; then caffeine at high concentration (20 mM) was applied to rapidly deplete the SR load (FIG. 14A,B). The rapidity of the SR Ca^2+ release was accessed by the rising velocity of the caffeine-induced Ca^2+ transient, and the peak Ca^2+ value was used as an index to measure the SR load. […] Since RyR sensitivity to intra-SR [Ca^2+] is steep, we also acknowledge that small changes in SR Ca^2+ that we could not detect could have functional impact.
Myocyte contraction measurement. Contraction measurement using Fluo-4 confocal image was determined from the confocal x-t linescan by the difference in the positions of the left and right boundaries demarcated by the bright fluo-4 signal and the dimmer signal from the PVA gel or the bathing solution. Myocyte length was calculated by converting the fluorescence signal along each x into a binary vector. Fluorescence values above background plus a threshold were considered 1, otherwise 0. The numbers of “1” pixels was then multiplied by a scaling factor (determined by using a Ronchi ruling with 2.5 spacing) to get the cell shortening in microns. The threshold was set to half of the maximum calcium fluorescence.
Contraction measurement using IonOptix system (IonOptix Co., USA) with sarcomere detection was done by using a high speed camera (Myocam-S, 240 up to 1000 frame/s) the record the sarcomere movement during contraction. […]

[5] = myocytes contracting in-Gel, L-Nio 10 μM

autonomous CaMKII activation (FCFP/FYFP) ([2]; 50 μM SNAP with 1 mM EGTA, compared to EGTA only): no effect
SMILES: CC(=O)N[C@@H](C(=O)O)C(C)(C)SN=O (racemic) [SNAP]
SNAP dependent CaMKII activation in mutant Camui [1]: preserved; also recorded: not secondary to either phosphorylation (T286A) or oxidation (CM/VV) | autonomous CaMKII activation (FCFP/FYFP) ([2]; 500 μM SNAP with 1 mM EGTA): significant increase in CaMKII activation; also recorded: Autonomous CaMKII activation was seen | CaMKII activation relative to Ca^2+/CaM dependent activity ([2]; 500 μM SNAP with EGTA): about 50 % of Ca^2+/CaM dependent activity

SMILES: COC(=O)[C@@H](N)CCCNC(=N)N[N+](=O)[O-] [L-NAME]
afterload-induced diastolic spontaneous Ca^2+ sparks, drug effect [3]: effectively suppressed Ca^2+ sparks

SMILES: Cc1ccc2c(c1)C(=O)C1(O)CCN(c3ccccc3)C1=N2 (stereo not drawn) [blebbistatin]
afterload-induced diastolic spontaneous Ca^2+ sparks, drug effect [3]: restored the Ca^2+ transient and spark rate to the load-free condition | afterload-induced diastolic spontaneous Ca^2+ sparks, drug effect ([3]; listed as Blebbistatin): normalization of Ca^2+ spark rate | systolic Ca^2+ transient (Fluo-4 confocal) [4]: restored the Ca^2+ transient and spark rate to the load-free condition | systolic Ca^2+ transient (Fluo-4 confocal) ([4]; listed as Blebbistatin): restored the Ca^2+ transient to the load-free condition | myocyte contraction amplitude (fractional shortening) ([4]; in gel versus load-free, blebbistatin 10 μM): decoupled cell contraction from Ca^2+ signaling

SMILES: CCCN=C(N)NCCC[C@H](N)C(=O)O.Cl [L-NPA, Nw-Propyl-L-arginine hydrochloride]
afterload-induced diastolic spontaneous Ca^2+ sparks, drug effect [3]: effectively suppressed Ca^2+ sparks | peak systolic Ca^2+ transient (Fura-2 ratio), inhibitor effect [4, 5]: reduced the Ca^2+ transient

SMILES: CC(N)=NCCC[C@H](N)C(=O)O.Cl.Cl [L-Nio, L-Nio-dihydrochloride]
afterload-induced diastolic spontaneous Ca^2+ sparks, drug effect [3]: failed to suppress Ca^2+ sparks | peak systolic Ca^2+ transient (Fura-2 ratio), inhibitor effect [4, 5]: reduced the Ca^2+ transient | Tau of the Ca^2+ transient decline [4, 5]: slowed the speed of Ca^2+ transient decline
